“Also recorded” adds a separate entry of the source.
Columns and labels:
4T1 tumors = assay: 4T1 tumor progression in syngeneic BALB/c mice; type: in vivo; settings: SERD128 50 mg/kg oral gavage, fulvestrant 5 mg/mouse subcutaneous once a week, anti-PD-L1 100 μg every third day, 10-12 days
Procedure: Ovariec-tomized 6-wk-old female BALC/c mice supplemented with E2 pellets (0.36 mg/60 day release pellet) were implanted SC with 2.5×10^5 4T1 cells. After tumors reached approx. 200 mm3, mice were randomized and treated with control vehicle (CON), 100 μg of anti-PD-L1 (antibody clone 10F.9G2, BioXCell) Q3 days (PD-L1), 50 mg/kg SERD128 by oral gavage (SERD128) or combined antibody+SERD (PD-L1+SERD128). Tumors were measured Q3 days, with tumor volume calculated as V=(W(2)×L)/2), with mean+SE (*P<0.05, **P<0.01 vs CON).
FIGS. 23A-23C show estrogen effects on ERα negative tumor growth in vitro and in vivo. […] Female 6-wk-old BALB/c mice, either ovariectomized (ovx) or sham-operated (intact), were inoculated s.c. with 2×10^5 4T1 TNBC cells. Tumor growth was then assessed every 3 days, with tumor volume calculated as V=(l×w×w)/2. ****P≤0.0001. […] 4T1 cells were grown in the presence (+E2) or absence (−E2) of estradiol-17β and increasing concentrations of SERD128 at 10 nM (128-10), 100 nM (128-100) or 1000 nM (128-1000). Cell proliferation was assessed using the Incucyte S3 Live-Cell Analysis system with pictures obtained every 4-6 hours. […] Ovariectomized 6-week-old female syngeneic BALB/c mice were primed with estradiol-17β slow-release pellets prior to tumor cell inoculation. After three days, 4T1 cells were injected in the 4th mammary fat pad (2×10^5 cells). After tumors reached ˜200 mm^3 mice were randomized and treated with control vehicle (CON), […] of anti-PD-L1 antibody every 3rd day (PD-L1 Ab), 50 mg/kg SERD128 via oral gavage (SERD128), and combinations of antibody and SERD128 (SERD128+PD-L1 Ab). Tumors were measured every 3 days, and tumor volume was calculated as V=(W(2)×L)/2). **P<0,01, ****P<0.0001 as compared to control group. n=11-12.
In further studies to determine the effects of antiestrogen treatment alone or in combination with anti-PD-L1 antibody on murine tumor progression in vivo, ovariectomized 6-week-old female syngeneic BALB/c mice were used (Jackson Laboratory). […] Tumors were measured every 3-4 days, and tumor volume was calculated as above. […]

[1] = tested on: myeloid-derived suppressor cells (MDSC); assay: Expansion of human MDSC from bone marrow of BC patients, flow cytometry; type: cell-based; settings: 1 μM in normal medium with GM-CSF and IL-6, 5-6 days
Excerpt: Bone Marrow cells from three breast cancer patients were purified by established methods including red blood cell lysis and Ficoll gradients (1-3,5, 5-7) and then cultured in the presence of IL-6 and GM-CSF in either estrogen-free medium (EFM), normal medium with control vehicle (NM) (which contains estrogens), normal medium with 1-μM fulvestrant (NM+FULV) or normal medium with 1-μM S128 (NM+S128). After 5 days, myeloid-derived cell populations were then identified by following the gating strategy of Ruffell et al. (2) as modified by Svoronos et al. (1). A) Percentage of total MDSC within CD45^+ population.
Total number of human MDSC derived from bone marrow (BM) of three of three BC patients (P<0.05). Cells were incubated in the presence of GM-CSF and IL-6 for 6 days in either regular RPMI medium+15% FBS (NM) (contains estrogens) or in phenol red-free medium with 15% charcoal coated-dextran treated FBS (EFM)(estrogen-depleted) with or without the addition of 100 nM estradiol-17β (EFM+E2). Normal cell culture medium (NM) drives E2-dependent signaling due to the presence of various estrogens in FBS as well as the estrogenic properties of phenol red. These effects were inhibited by the SERDs fulvestrant (FULV) and S128 at 1 μM
FIGS. 22A-22B show expansion of MDSCs is dependent on estrogen signaling and reversed by antiestrogens. […]
Human myeloid-derived suppressor cells were expanded from bone marrow (BM) specimens of BC patients after standard Ficoll gradient purification and red blood cell lysis. […] After 6 days of culture, cells were harvested, stained with a 14 antibody panel including anti-phospho-STAT3 (pSTAT3) and analyzed by flow cytometry with an LSRII with a 5 lasers (UV, violet, blue, green-yellow and red). […]

| SMILES | 4T1 tumor progression (tumor volume) (4T1 tumors) | total MDSC numbers (expansion of MDSC) [1] | 4T1 tumor progression (tumor volume) (4T1 tumors; 50 mg/kg) | 4T1 tumor progression (tumor volume) (4T1 tumors; listed as S128) | total MDSC numbers (expansion of MDSC) ([1]; listed as S128) |
| --- | --- | --- | --- | --- | --- |
| C[C@]12CC[C@@H]3c4ccc(O)cc4C[C@@H](CCCCCCCCC[S+]([O-])CCCC(F)(F)C(F)(F)F)[C@H]3[C@@H]1CC[C@@H]2O (stereo partly drawn) [fulvestrant, reference compound] | effective in inhibition of 4T1 tumor growth in vivo | substantially decreased; also recorded: significantly inhibited; also recorded: block E2-induced expansion of MDSCs |  |  |  |
| C[C@]12C[C@H](Oc3ccc(N)c(C(F)(F)F)c3)[C@@H]3c4ccc(O)cc4CC[C@H]3[C@@H]1CC[C@@H]2O [SERD128, (8S,9S,11S,13S,14S,17S)-11-(4-Amino-3-(trifluoromethyl)phenoxy)-13-methyl-7,8,9,11,12,13,14,15,16,17-decahydro-6H-cyclopenta[a]phenanthrene-3,17-diol] |  | significantly inhibited; also recorded: inhibits expansion and activation; also recorded: block E2-induced expansion of MDSCs; also recorded: exceeds that of fulvestrant at equivalent doses | inhibits breast cancer growth in vivo; also recorded: effective in inhibition of 4T1 tumor growth in vivo; also recorded: significant suppression of 4T1 tumor progression in vivo | elicits inhibition of 4T1 TNBC progression in vivo | substantially decreased; also recorded: inhibited; also recorded: inhibits E2-induced expansion of MDSC |

Source: US20220133747A1, “ESTROGEN RECEPTOR INHIBITORS AND USES THEROF” (The Regents of the University of California, priority 2018, published 2022)
